Source: US20120301510A1, “TOLEROGENIC SYNTHETIC NANOCARRIERS COUPLED TO CD1D-RESTRICTED ANTIGENS AND METHODS OF USE” (Selecta Biosciences, Inc., priority 2011, published 2012)

Tested on: iNKT cells
Test: iNKT cell activation in mice after injection of aGC and/or rapamycin, soluble or in nanocarriers (flow cytometry of liver lymphocytes)
Type: in vivo
Conditions: about 4 h after injection
Procedure: Mice were designated to groups that received PBS alone, soluble aGC, NPaGC, sol aGC+solRAPA, sol aGC+NP RAPA, NPaGC+solRAPA or NPaGC+NP RAPA. Mice were injected at 9 am and at 9.30 AM received BrefeldinA i.v. to prevent release of intracellular cytokines produced. At 1 pm, mice were sacrificed and the liver was perfused with PBS and processed to obtain a single cell suspension enriched for lymphocytes. Cells were stained with cell surface markers for iNKT cells (agc-loaded CD1d tetramers) and T cells receptor (TCRb) and activation marker CD69. The cell suspension was then permeabilized and intracellular cytokine staining was performed for Th1 cytokine IFN-γ, and Th2 cytokines IL-4 and the anti-inflammatory cytokine IL-10. Cells were acquired on a FacsCanto flow cytometer and analyzed on by FlowJo.

CCCCCCCCCCCCCCCCCCCCCCCCCC(=O)N[C@@H](CO[C@H]1O[C@H](CO)[C@H](O)[C@H](O)[C@H]1O)[C@H](O)[C@H](O)CCCCCCCCCCCCCC [aGC, α-Galactosyl Ceramide (KRN7000)]
iNKT cell activation as seen by cytokine production and upregulation of CD69 on their surface: activated
